Reference: patent publication US9205098B2, “Anti-cancer therapies” (Threshold Pharmaceuticals, Inc., priority 2004, dated 2015)

What was measured:
[1] = tested on: tumors derived from HS766-T human pancreatic cancer cells; experiment: HS766-T human pancreatic cancer tumor model in mice; assay type: in vivo, female NMRI nu/nu mice
Description: (§1) A combination of glufosfamide and gemcitabine was administered daily for 7 days to female NMRI nu/nu mice that were carrying tumors derived from HS766-T or As-PC-1 human pancreatic cancer cells. Mice were administered doses of vehicle control (0.9% sodium chloride solution, i.v.), gemcitabine (i.p.), glufosfamide (i.v.) or gemcitabine/glufosfamide combinations once daily for 7 consecutive days. A dose of 1.25 mg/kg was used as the standard dose for gemcitabine throughout the study.

[2] = tested on: tumors derived from As-PC-1 human pancreatic cancer cells; experiment: As-PC-1 human pancreatic cancer tumor model in mice; assay type: in vivo, female NMRI nu/nu mice; details: glufosfamide i.v., gemcitabine i.p., alone or in combination, once daily for 7 days
Description: as §1

[3] = tested on: tumors derived from type MiPaca2 human pancreatic cancer cells; experiment: MiPaca2 human pancreatic cancer tumor model in nude mice; assay type: in vivo
Description: A combination of glufosfamide and gemcitabine was administered to nude mice that were carrying tumors derived from type MiPaca2 human pancreatic cancer cells. Mice were administered doses of vehicle control, gemcitabine, glufosfamide, or gemcitabine/glufosfamide combinations as tabulated in Table 1 below (10 mice/group). Glufosfamide was administered i.v., daily for 14 days (Groups 1-4 and 7-12). Gemcitabine was administered at 300 mg/kg, i.p., once a week for three weeks (Groups 6 and 10-12). Gemcitabine was administered at 150 mg/kg, i.p., twice a week for three weeks (Groups 5 and 7-9).

[4] = tested on: pancreatic cancer cell lines; details: in vitro; cited from earlier work
[5] = tested on: advanced pancreatic cancer; details: patients with advanced pancreatic cancer; cited from earlier work

| SMILES | inhibitory effect on tumor progression ([1]; gemcitabine alone 1.25 mg/kg i.p. once daily for 7 days) | inhibitory effect on tumor growth [2] | onset of tumor growth compared with gemcitabine alone or vehicle control ([1]; glufosfamide 10 mg/kg i.v. once daily for 7 days) | reduction in tumor size ([3]; Group 3: glufosfamide 30 mg/kg i.v. daily for 14 days) | reduction in tumor size ([3]; Group 4: glufosfamide 100 mg/kg i.v. daily for 14 days) | activity against pancreatic cancer cell lines [4] | activity in patients [5] |
| --- | --- | --- | --- | --- | --- | --- | --- |
| Nc1ccn([C@@H]2O[C@H](CO)[C@@H](O)C2(F)F)c(=O)n1 [gemcitabine, 2′-deoxy-2′,2′-difluoro-cytidine] | only a marginal inhibitory effect | no apparent inhibitory effect on tumor growth | – | – | – | – | – |
| O=P(NCCCl)(NCCCl)O[C@@H]1O[C@H](CO)[C@@H](O)[C@H](O)[C@H]1O [glufosfamide, β-D-glucosyl-ifosfamide mustard] | – | no apparent inhibitory effect on tumor growth | dramatic delay in the onset of tumor growth | modest reduction in tumor size | modest reduction in tumor size | – | – |
| Nc1nc2[nH]cc(CCc3ccc(C(=O)N[C@@H](CCC(=O)O)C(=O)O)cc3)c2c(=O)[nH]1 [pemetrexed] | – | – | – | – | – | active | has shown activity |
